The values below come from ChEMBL document CHEMBL2040789, “Optimization of the Central Core of Indolinone-Acetic Acid-Based CRTH2 (DP2) Receptor Antagonists” (ACS Med Chem Lett, 2011).

For data set [1], the target named is T1, Prostaglandin D2 receptor 2 (Homo sapiens, UniProt Q9Y5Y4).
T1 sequence (Q9Y5Y4 whole entry): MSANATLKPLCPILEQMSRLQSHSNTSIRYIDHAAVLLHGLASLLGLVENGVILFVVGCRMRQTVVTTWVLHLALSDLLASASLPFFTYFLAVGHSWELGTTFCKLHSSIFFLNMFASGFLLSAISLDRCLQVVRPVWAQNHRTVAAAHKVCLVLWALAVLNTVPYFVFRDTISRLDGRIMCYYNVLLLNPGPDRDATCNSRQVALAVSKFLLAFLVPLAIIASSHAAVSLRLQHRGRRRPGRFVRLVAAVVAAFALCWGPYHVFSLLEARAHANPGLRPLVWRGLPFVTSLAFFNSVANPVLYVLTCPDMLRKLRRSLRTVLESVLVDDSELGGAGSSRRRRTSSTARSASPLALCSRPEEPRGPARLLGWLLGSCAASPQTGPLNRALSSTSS
Briefly: Displacement of [3H]PGD2 from human CRTH2 receptor expressed in CHO cells after 90 mins by scintillation proximity assay. Type of data set: cell-based. On the technique in general: In a radioligand displacement assay an active substance lowers the binding of a labelled ligand.

Data set [2] can be described thus: Half life in human plasma. The format is ADME, cell-free.
Data set [3] in a line: Stability assessed as drug degradation by measuring 2,2'-(5-chloro-3-(2-fluorobenzylcarbamoyl)-2-oxoindoline-1,3-diyl)diacetic acid formation at pH > 6 after 24 hrs. The format is physicochemical.
A short description of data set [4]: Drug degradation at pH 8 after 24 hrs. The format is physicochemical. The conditions noted are these: buffer, read-out: Drug degradation.
A short description of data set [5]: Drug degradation at pH 7.4 after 24 hrs. The format is physicochemical. The settings on record: buffer, read-out: Drug degradation.
Data set [6] in a line: Stability assessed as drug degradation by measuring 2-(5-chloro-3-(2-(2-fluorobenzylamino)-2-oxoethyl)-2-oxoindolin-1-yl)acetic acid formation at pH > 6 after 24 hrs. Type of data set: physicochemical.
The nature of data set [7]: Apparent permeability of the compound in human Caco2 cells. The format is ADME, cell-based. The settings on record: Caco-2.
Data set [8] can be described thus: Oral bioavailability in C57BL/6 mouse at 5 mg/kg. Type of data set: ADME, organism-based. The settings on record: in vivo.
A short description of data set [9]: Clearance in C57BL/6 mouse at 1 mg/kg, iv and 5 mg/kg, po. The format is ADME, organism-based. The conditions noted are these: in vivo.
Data set [10] in a line: Clearance in Sprague-Dawley rat at 1 mg/kg, iv and 5 mg/kg, po. The format is ADME, organism-based. The settings on record: in vivo.
Data set [11] can be described thus: Fraction unbound in human plasma. Type of data set: ADME, cell-free.
The nature of data set [12]: Drug degradation in human plasma after 24 hrs. The format is ADME, cell-free. The settings on record: read-out: Drug degradation.
A short description of data set [13]: Oral bioavailability in Sprague-Dawley rat at 5 mg/kg. Type of data set: ADME, organism-based. The settings on record: in vivo.
Data set [14] in a line: Drug degradation at pH 9 after 24 hrs. The format is physicochemical. The settings on record: buffer, read-out: Drug degradation.
Data set [15] in a line: Bioavailability in Sprague-Dawley rat after intraduodenal administration. Type of data set: ADME, organism-based. The settings on record: in vivo.
Data set [16] can be described thus: Oral bioavailability in guinea pig. The conditions noted are these: in vivo. Type of data set: ADME, organism-based, Cavia porcellus.
A short description of data set [17]: Bioavailability in Sprague-Dawley rat administered by portal vein. The format is ADME, organism-based. The conditions noted are these: in vivo.
The next data set concerns Liver microsomes. Briefly: Clearance in human liver microsomes. The format is ADME, Microsome. On the technique in general: Liver microsomes are vesicles of endoplasmic reticulum, rich in cytochrome P450 enzymes.
Data set [18] can be described thus: Solubility of the compound in fasted state simulated intestinal fluid.
The nature of data set [19]: Solubility of the compound in simulated gastric fluid. The format is physicochemical.
The nature of data set [20]: AUC in C57BL/6 mouse at 5 mg/kg, po. Type of data set: ADME, organism-based. On the set-up: dose 5 mg/kg, route oral. The settings on record: plasma.
Data set [21] can be described thus: Oral bioavailability in dog. Type of data set: ADME, organism-based, Canis lupus familiaris. The settings on record: in vivo.
Data set [22] is described as follows: Fraction unbound in mouse plasma. Type of data set: ADME, cell-free.
A further data set relates to Hepatocyte. Briefly: Clearance in human hepatocytes. The format is ADME, cell-based.
The nature of data set [23]: Oral bioavailability in monkey. The format is ADME, organism-based, Macaca mulatta. The conditions noted are these: rhesus monkey, in vivo.
Data set [24] is described as follows: Fraction unbound in rat plasma. The format is ADME, cell-free.

pKi: −log10 of the molar value. Converted amounts (≈) assume the structure as drawn. A value given as a limit tells only on which side of the number the result lay.

The pKi is the negative decadic logarithm of the Ki, by convention in mol/L. `COc1c(C)cnc(CN2C(=O)N(C)C3(C2=O)C(=O)N(CC(=O)O)c2ccc(Cl)cc23)c1C` (centres undefined) showed a pKi in data set [1] of 6.55.

By half-life is commonly meant how long it takes for the measured level to halve. On to `O=C(O)CN1C(=O)[C@@]2(CC(=O)N(Cc3ccccc3F)C2=O)c2cc(Cl)ccc21`, for which, in [2], the half-life is 60 min. In addition, the Stability entry in [3] and in data set [6] was “Unstable” throughout. Further, the degraded at 24 h was 50% in data set [4] and 25% in data set [5].

`CCN1C(=O)N(Cc2cc(Cl)ccc2F)C(=O)[C@]12C(=O)N(CC(=O)O)c1ccc(Cl)cc12` gave a pKi in [1] of 6.59.

In turn, `CC(C)c1nc(CN2C(=O)N(C)C3(C2=O)C(=O)N(CC(=O)O)c2ccc(Cl)cc23)cs1` (centres undefined) gave a pKi in [1] of 6.31.

Compound `O=C(O)CN1C(=O)C2(NC(=O)N(Cc3ccccc3F)C2=O)c2cc(Cl)ccc21` (centres undefined) gave a pKi in data set [1] of 6.41.

`CN1C(=O)N(Cc2nc3ccccc3s2)C(=O)C12C(=O)N(CC(=O)O)c1ccc(Cl)cc12` (centres undefined) showed a pKi in [1] of 6.12.

`CCCN1C(=O)N(Cc2cc(Cl)ccc2F)C(=O)[C@]12C(=O)N(CC(=O)O)c1ccc(Cl)cc12` showed a pKi in [1] of 6.96.

One may read the Papp as a coefficient for how fast a substance crosses the barrier. Consider `O=C(O)CN1C(=O)[C@@]2(CC(=O)N(Cc3cc(Cl)ccc3F)C2=O)c2cc(Cl)ccc21`, for which the half-life in data set [2] was 60 min. Further, the Papp in data set [7] was found to be 26 ×10⁻⁶ cm/s.

For `O=C(O)CN1C(=O)C2(NC(=O)N(Cc3cc(Cl)ccc3F)C2=O)c2cc(Cl)ccc21` (centres undefined), in data set [1], the pKi is 7.55.

One may read the bioavailability as the share of a dose that reaches the circulation, judged against a reference dose that is usually intravenous. On to `CN1C(=O)N(Cc2csc(-c3ccccc3)n2)C(=O)C12C(=O)N(CC(=O)O)c1ccc(Cl)cc12` (centres undefined), for which the pKi in data set [1] is 7.80. The compound further came in with a bioavailability in [8] below 5%. The clearance in data set [9] is 60.5 mL/min/kg.

Turning to `Cc1onc(-c2ccccc2)c1CN1C(=O)N(C)C2(C1=O)C(=O)N(CC(=O)O)c1ccc(Cl)cc12` (centres undefined), the pKi in data set [1] is 6.96.

Regarding `Cc1onc(-c2ccccc2)c1CN1C(=O)NC2(C1=O)C(=O)N(CC(=O)O)c1ccc(Cl)cc12` (centres undefined), the negative logarithm of the Ki (pKi) in [1] is 8.15.

In data set [1], `CN1C(=O)N(Cc2cc(F)ccc2F)C(=O)C12C(=O)N(CC(=O)O)c1ccc(Cl)cc12` (centres undefined) had a pKi of 6.41.

Usually fraction unbound stands for the share of the substance not bound to proteins or other matrix. In turn, `O=C(O)CN1C(=O)[C@@]2(CC(=O)N(Cc3cc(Cl)ccc3F)C2)c2cc(Cl)ccc21` gave a clearance in [10] of 12 mL/min/kg. The Papp in [7] came out at 1.8 ×10⁻⁶ cm/s. In data set [11], this compound registered a fraction unbound below 0.01. The metabolised at 24 h in data set [12] was below 15%. This compound also returned a bioavailability in data set [13] of 5%. In addition, in [14], the degraded at 24 h is below 5%.

On to `CN1C(=O)N(Cc2cn(-c3ccccc3)nc2-c2ccccc2)C(=O)C12C(=O)N(CC(=O)O)c1ccc(Cl)cc12` (centres undefined), for which the pKi in data set [1] was 7.02.

The term solubility denotes the dissolved amount per volume that the medium holds. As a reminder, the AUC is the area under the concentration-time curve, a measure of exposure. On to `O=C(O)CN1C(=O)[C@@]2(NC(=O)N(Cc3cc(Cl)ccc3F)C2=O)c2cc(Cl)ccc21`, for which the bioavailability in [15] is 11%; in data set [16] it was 7%; in data set [17], 90%; in data set [21] it was 71%; in data set [8] it was 9%; in data set [13], 6%. In data set [23], this compound had a bioavailability of 10%. Also, the clearance in data set [10] was 2.5 mL/min/kg; in data set [9], 13.3 mL/min/kg. Moreover, the Papp in [7] turned out to be 0.2 ×10⁻⁶ cm/s. For the same compound, the CLH in the data set on Liver microsomes was below 1 µg/mL/h; in the data set with Hepatocyte, 2 µg/mL/h. For the same compound, the fraction unbound came to 0.023 in data set [11], 0.063 in data set [22] and 0.03 in [24]. The metabolised at 24 h in [12] was below 15%. Also, the solubility in data set [18] is 1500 µg/mL (≈ 3320 µM); in data set [19], 10 µg/mL (≈ 22.1 µM). In addition, the degraded at 24 h in data set [4] is below 5%; in data set [14], 45%. The same compound showed an exposure (AUC) in [20] of 580 ng·h/mL. For the same compound, the pKi in data set [1] was 7.82.
